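These data come from cells grown in 96-well plates and exposed to compound for 48 hours at five concentrations. At the GI50, growth is halved. TGI: total growth inhibition.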
What was measured:
Assay in all cases: DTP human tumour cell line panel, 48 h
SK-MEL-2 melanoma = tested on: SK-MEL-2 melanoma
OVCAR-5 ovarian = tested on: OVCAR-5 ovarian
SF-539 CNS = tested on: SF-539 CNS
NCI/ADR-RES ovarian = tested on: NCI/ADR-RES ovarian
SW-620 colon = tested on: SW-620 colon
RPMI-8226 leukemia = tested on: RPMI-8226 leukemia
M14 melanoma = tested on: M14 melanoma
RXF 393 renal = tested on: RXF 393 renal
HL-60(TB) leukemia = tested on: HL-60(TB) leukemia
SNB-75 CNS = tested on: SNB-75 CNS
EKVX NSCLC = tested on: EKVX NSCLC
MALME-3M melanoma = tested on: MALME-3M melanoma
CAKI-1 renal = tested on: CAKI-1 renal
HOP-92 NSCLC = tested on: HOP-92 NSCLC
OVCAR-4 ovarian = tested on: OVCAR-4 ovarian
NCI-H226 lung = tested on: NCI-H226 lung
OVCAR-3 ovarian = tested on: OVCAR-3 ovarian
A549 NSCLC = tested on: A549 NSCLC
COLO 205 colon = tested on: COLO 205 colon
DU-145 prostate = tested on: DU-145 prostate
KM12 colon = tested on: KM12 colon
LOX IMVI melanoma = tested on: LOX IMVI melanoma
OVCAR-8 ovarian = tested on: OVCAR-8 ovarian
NCI-H460 lung = tested on: NCI-H460 lung
PC-3 prostate = tested on: PC-3 prostate
BT-549 breast = tested on: BT-549 breast
HS 578T breast = tested on: HS 578T breast
SNB-19 CNS = tested on: SNB-19 CNS
HCT-15 colon = tested on: HCT-15 colon
UO-31 renal = tested on: UO-31 renal
IGROV1 ovarian = tested on: IGROV1 ovarian
MDA-MB-231 breast = tested on: MDA-MB-231 breast
HCC-2998 colon = tested on: HCC-2998 colon
A498 renal = tested on: A498 renal
SF-295 CNS = tested on: SF-295 CNS
786-0 renal = tested on: 786-0 renal
TK-10 renal = tested on: TK-10 renal
SN12C renal = tested on: SN12C renal
NCI-H23 lung = tested on: NCI-H23 lung
UACC-257 melanoma = tested on: UACC-257 melanoma
MOLT-4 leukemia = tested on: MOLT-4 leukemia
UACC-62 melanoma = tested on: UACC-62 melanoma
ACHN renal = tested on: ACHN renal
SF-268 CNS = tested on: SF-268 CNS
CCRF-CEM leukemia = tested on: CCRF-CEM leukemia
HOP-62 NSCLC = tested on: HOP-62 NSCLC
T-47D breast = tested on: T-47D breast
SK-MEL-28 melanoma = tested on: SK-MEL-28 melanoma
MCF7 breast = tested on: MCF7 breast
HT29 colon = tested on: HT29 colon

With `COc1ccc2c(c1)oc1c(C)c3c(c(C)c12)C(=O)N(N)C3=O` the GI50 (SK-MEL-2 melanoma) was over 100 µM, the TGI (SK-MEL-2 melanoma) was over 100 µM and the GI50 (OVCAR-5 ovarian) was over 100 µM. For the same compound, the TGI (OVCAR-5 ovarian) was over 100 µM, the GI50 (SF-539 CNS) was 78.8 µM and the TGI (SF-539 CNS) was over 100 µM. It also gave a GI50 (NCI/ADR-RES ovarian) of over 100 µM, a TGI (NCI/ADR-RES ovarian) of over 100 µM and a GI50 (SW-620 colon) of over 100 µM. The TGI (SW-620 colon) was over 100 µM, the GI50 (RPMI-8226 leukemia) was over 100 µM and the TGI (RPMI-8226 leukemia) was over 100 µM. The GI50 (M14 melanoma) was over 100 µM, the TGI (M14 melanoma) was over 100 µM and the GI50 (RXF 393 renal) was 8.21 µM. For the same compound, the TGI (RXF 393 renal) was over 100 µM, the GI50 (HL-60(TB) leukemia) was over 100 µM and the TGI (HL-60(TB) leukemia) was over 100 µM. It also gave a GI50 (SNB-75 CNS) of 4.37 µM, a TGI (SNB-75 CNS) of over 100 µM and a GI50 (EKVX NSCLC) of over 100 µM. It also gave a TGI (EKVX NSCLC) of over 100 µM, a GI50 (MALME-3M melanoma) of over 100 µM and a TGI (MALME-3M melanoma) of over 100 µM. It also gave a GI50 (CAKI-1 renal) of over 100 µM, a TGI (CAKI-1 renal) of over 100 µM and a GI50 (HOP-92 NSCLC) of over 100 µM. It also gave a TGI (HOP-92 NSCLC) of over 100 µM, a GI50 (OVCAR-4 ovarian) of over 100 µM and a TGI (OVCAR-4 ovarian) of over 100 µM. It also gave a GI50 (NCI-H226 lung) of 40.4 µM, a TGI (NCI-H226 lung) of over 100 µM and a GI50 (OVCAR-3 ovarian) of over 100 µM. It also gave a TGI (OVCAR-3 ovarian) of over 100 µM, a GI50 (A549 NSCLC) of over 100 µM and a TGI (A549 NSCLC) of over 100 µM. The GI50 (COLO 205 colon) was over 100 µM, the TGI (COLO 205 colon) was over 100 µM and the GI50 (DU-145 prostate) was over 100 µM. It also gave a TGI (DU-145 prostate) of over 100 µM, a GI50 (KM12 colon) of over 100 µM and a TGI (KM12 colon) of over 100 µM. It also gave a GI50 (LOX IMVI melanoma) of over 100 µM, a TGI (LOX IMVI melanoma) of over 100 µM and a GI50 (OVCAR-8 ovarian) of 7.89 µM. The TGI (OVCAR-8 ovarian) was over 100 µM, the GI50 (NCI-H460 lung) was 3.49 µM and the TGI (NCI-H460 lung) was over 100 µM. For the same compound, the GI50 (PC-3 prostate) was over 100 µM, the TGI (PC-3 prostate) was over 100 µM and the GI50 (BT-549 breast) was 5.2 µM. It also gave a TGI (BT-549 breast) of over 100 µM, a GI50 (HS 578T breast) of 32.6 µM and a TGI (HS 578T breast) of over 100 µM. For the same compound, the GI50 (SNB-19 CNS) was over 100 µM, the TGI (SNB-19 CNS) was over 100 µM and the GI50 (HCT-15 colon) was over 100 µM. It also gave a TGI (HCT-15 colon) of over 100 µM, a GI50 (UO-31 renal) of over 100 µM and a TGI (UO-31 renal) of over 100 µM. For the same compound, the GI50 (IGROV1 ovarian) was over 100 µM, the TGI (IGROV1 ovarian) was over 100 µM and the GI50 (MDA-MB-231 breast) was 61.9 µM. The TGI (MDA-MB-231 breast) was over 100 µM, the GI50 (HCC-2998 colon) was over 100 µM and the TGI (HCC-2998 colon) was over 100 µM. For the same compound, the GI50 (A498 renal) was 4.25 µM, the TGI (A498 renal) was over 100 µM and the GI50 (SF-295 CNS) was over 100 µM. It also gave a TGI (SF-295 CNS) of over 100 µM, a GI50 (786-0 renal) of 22.7 µM and a TGI (786-0 renal) of over 100 µM. The GI50 (TK-10 renal) was over 100 µM, the TGI (TK-10 renal) was over 100 µM and the GI50 (SN12C renal) was over 100 µM. It also gave a TGI (SN12C renal) of over 100 µM, a GI50 (NCI-H23 lung) of over 100 µM and a TGI (NCI-H23 lung) of over 100 µM. It also gave a GI50 (UACC-257 melanoma) of over 100 µM, a TGI (UACC-257 melanoma) of over 100 µM and a GI50 (MOLT-4 leukemia) of 23.4 µM. The TGI (MOLT-4 leukemia) was over 100 µM, the GI50 (UACC-62 melanoma) was over 100 µM and the TGI (UACC-62 melanoma) was over 100 µM. It also gave a GI50 (ACHN renal) of 7.53 µM, a TGI (ACHN renal) of over 100 µM and a GI50 (SF-268 CNS) of 21.9 µM. It also gave a TGI (SF-268 CNS) of over 100 µM, a GI50 (CCRF-CEM leukemia) of over 100 µM and a TGI (CCRF-CEM leukemia) of over 100 µM. For the same compound, the GI50 (HOP-62 NSCLC) was 25 µM, the TGI (HOP-62 NSCLC) was over 100 µM and the GI50 (T-47D breast) was over 100 µM. For the same compound, the TGI (T-47D breast) was over 100 µM, the GI50 (SK-MEL-28 melanoma) was over 100 µM and the TGI (SK-MEL-28 melanoma) was over 100 µM. The GI50 (MCF7 breast) was 50.7 µM, the TGI (MCF7 breast) was over 100 µM and the GI50 (HT29 colon) was over 100 µM. For the same compound, the TGI (HT29 colon) was over 100 µM.

Reference: PubChem BioAssay (NCI)
